In US9358261B2, “Additional artemisinin and berberine compositions and methods of making” (U.S. Phytotherapy, Inc., priority 2011, dated 2016):

Assays:
Lyme disease = assay: Lyme Disease Case Study #2; type: in vivo, human; conditions: treatments before coACT A-B, person
Excerpt: They worked as a full-time project manager for a non-profit food bank, and lives in the United States. Their symptoms first appeared in August of 2010. When […] was first diagnosed they had skin rashes that were not helped with topical treatments, low-grade fevers, severe migraines, continuous muscle aches, sore throat, stomach pain, joint pains, gynecological issues, and constant fatigue. The initial indication was hives on stomach and back which grew to circular rashes on both thighs, all directly following an insect bite from a horse fly.
From these professionals they were diagnosed not only with Lyme disease, but the following diagnoses and/or misdiagnoses: fibromyalgia, depression, arthritis, pinched nerve, burning mouth syndrome, and mycotoxic poisoning. By May 2011 they were confirmed with Lyme disease and subsequently reconfirmed by another physician in August 2011. Their case of Lyme disease was clinically diagnosed based on lab findings, Western Blot, and symptomatology. […] Tindamax was likewise not tolerated. […] Other anti-fungals caused pain and further reduced their energy levels.
[…] […] They reported climbing the lighthouse stairs in St. Augustine, Fla. without suffering a decrease in energy afterwards, which was atypical for them at that time. […] Kathy has stated that coACT provided them with “a few really good weeks which is invaluable when you haven't functioned normally for some time. For chronic long-term patients, I suspect additional dosing (like every few months or so) is necessary. For newcomers or uncomplicated cases, it could be a bridge to health and healing.

JCV = conditions: literature case reports; cited from earlier work
chikungunya disease = conditions: cell culture and monkeys; cited from earlier work
chikungunya virus = conditions: 250 mg/day; cited from earlier work

For `CCS(=O)(=O)CCn1c([N+](=O)[O-])cnc1C` [Tindamax], the “outcome of earlier treatments in patient history” value (“outcome of earlier treatments” for short) (Lyme disease) was “not tolerated”.

For `Nc1ccn([C@@H]2O[C@H](CO)[C@@H](O)[C@@H]2O)c(=O)n1` [Cytarabine], the “clinical outcome in PML patients” value (JCV) is listed as “stabilized the neurological condition of a minority of these patients”.

For `C[C@@H]1[C@H](O)[C@@H](C)/C=C/C=C/CC/C=C/C=C/C=C/C=C/C(O[C@H]2O[C@H](C)[C@@H](O)[C@H](N)[C@@H]2O)CC2O[C@](O)(CC(O)C(O)CCC(O)CC(O)CC(O)CC(=O)O[C@H]1C)CC(O)C2C(=O)O` (some centres unmarked) [Nystatin], the “outcome of earlier treatments” value (Lyme disease) was “neither of which made any detectable difference”.

In the case of Ivermectin, the “outcome of earlier treatments” value (Lyme disease) is reported as “helped them to pass parasites in their stool, but left their lifeless, dizzy, and with nystagmus”.

With `CN1CCCN=C1/C=C/c1cccs1.O=C(O)c1cc2ccccc2c(Cc2c(O)c(C(=O)O)cc3ccccc23)c1O` [Pyrantal Pamoate] the “outcome of earlier treatments” value (Lyme disease) was “helped them to pass parasites in their stool, but left their lifeless, dizzy, and with nystagmus”.

With `Nc1nc2c(ncn2COCCO)c(=O)[nH]1` [Acyclovir] the “outcome of earlier treatments” value (Lyme disease) was “caused their symptoms to worsen in that they could not lift their arms”.

With `CCCSc1ccc2nc(NC(=O)OC)[nH]c2c1` [Albendazole] the “outcome of earlier treatments” value (Lyme disease) was “seemed to help them with passing parasites”.

With `CO/N=C(\C(=O)N[C@@H]1C(=O)N2C(C(=O)O)=C(CSc3nc(=O)c(=O)[nH]n3C)CS[C@H]12)c1csc(N)n1` [Rocephin] the “outcome of earlier treatments” value (Lyme disease) was “helped restore their energy, but caused an allergic reaction”.

For `CCN(CC)CCCC(C)Nc1ccnc2cc(Cl)ccc12` (centres unmarked) [chloroquine], the “reduction of chikungunya disease” value (chikungunya disease) is given as “no effect”.

For `CCN(CC)CCCC(C)Nc1ccnc2cc(Cl)ccc12` (centres unmarked) [chloroquine phosphate], the “effect on arthritis-like symptoms not relieved by aspirin and NSAID” value (chikungunya virus) is given as “promising results”.

In the case of `OC(c1cc(C(F)(F)F)nc2c(C(F)(F)F)cccc12)C1CCCCN1` (centres unmarked) [mefloquine], the “clinical outcome in PML patients” value (JCV) is listed as “seemed to eliminate the virus from the patient's body and prevented further neurological deterioration”.
